Test results: PubChem BioAssay (NCI)
Converted amounts (≈) assume the structure as drawn.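 Assay format: 96-well plates, 48-hour exposure. GI50 is the concentration that inhibits growth by half. TGI is the concentration that stops growth completely.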

Assays:
Assay in all cases: inhibition of tumour cell growth, NCI panel, 48 h
A498 renal = test system: A498 renal
ACHN renal = test system: ACHN renal
COLO 205 colon = test system: COLO 205 colon
HL-60(TB) leukemia = test system: HL-60(TB) leukemia
HS 578T breast = test system: HS 578T breast
OVCAR-3 ovarian = test system: OVCAR-3 ovarian
OVCAR-8 ovarian = test system: OVCAR-8 ovarian
RPMI-8226 leukemia = test system: RPMI-8226 leukemia
SF-539 CNS = test system: SF-539 CNS
UACC-257 melanoma = test system: UACC-257 melanoma

Row | Structure (SMILES) | TGI (A498 renal) | TGI (ACHN renal) | TGI (COLO 205 colon) | TGI (HL-60(TB) leukemia) | TGI (HS 578T breast) | TGI (OVCAR-3 ovarian) | TGI (OVCAR-8 ovarian) | TGI (RPMI-8226 leukemia) | TGI (SF-539 CNS) | TGI (UACC-257 melanoma) | GI50 (ACHN renal) | GI50 (COLO 205 colon) | GI50 (HL-60(TB) leukemia) | GI50 (HS 578T breast) | GI50 (OVCAR-3 ovarian) | GI50 (OVCAR-8 ovarian) | GI50 (RPMI-8226 leukemia) | GI50 (SF-539 CNS) | GI50 (UACC-257 melanoma)
1 | S=C(Cc1ccc2c(c1)Sc1ccccc1O2)N1CCOCC1 | > 100 µM | > 100 µM | > 100 µM | > 100 µM | 61.6 µM | > 100 µM | > 100 µM | > 100 µM | 61.1 µM | > 100 µM |  |  |  |  |  |  |  |  | 
2 | O=C(CCc1cc(O)cc(O)c1)NCCc1cc(OCc2ccccc2)cc(OCc2ccccc2)c1 | 42.8 µM | 15.6 µM | 44.3 µM | 12.2 µM | 48.7 µM | 52.2 µM | 50.6 µM | 54 µM | 44.6 µM | 70 µM |  |  |  |  |  |  |  |  | 
3 | C[C@@H]1CC[C@@]2(C)C(C(=O)O)=CCCC2[C@@]1(C)CC(=O)c1ccoc1 (some centres not stated) | > 25 µM | > 25 µM | > 25 µM | > 25 µM | > 25 µM | > 25 µM | > 25 µM | > 25 µM | > 25 µM | > 25 µM |  |  |  |  |  |  |  |  | 
4 | COC(=O)C(Cc1cn(C(C)n2cc(CC(NC(C)=O)C(=O)OC)c3ccccc32)c2ccccc12)NC(C)=O (configuration not stated) | > 100 µM |  | > 100 µM |  | > 100 µM | > 100 µM |  | > 100 µM |  | > 100 µM |  |  |  |  |  |  |  |  | 
5 | OCc1ccc2c(c1)CC1(C2)Cc2cc3c(cc2C1O)CCC3 (configuration not stated) | 27.7 µM | 41.3 µM | 10.3 µM | > 23.4 µM | 11.4 µM | > 50.9 µM | 30.9 µM | 15.8 µM | 14.9 µM | 12.6 µM |  |  |  |  |  |  |  |  | 
6 | O=C(O)c1nc2ccc(C(F)(F)F)cc2[nH]c1=O | > 100 µM | > 100 µM | > 100 µM | > 100 µM | > 100 µM | > 100 µM | > 100 µM | > 100 µM | > 100 µM | > 100 µM |  |  |  |  |  |  |  |  | 
7 | CCOC(=O)/C=C/c1nc(C#N)c(N)o1 | > 100 µM | > 100 µM |  | > 100 µM | > 100 µM |  | > 100 µM | > 100 µM |  | > 100 µM |  |  |  |  |  |  |  |  | 
8 | O=C1NN(C2=NNC3(C(=O)N2)c2ccccc2-c2ccccc23)C(c2ccccc2)=N/C1=C/c1ccc(Cl)cc1 |  | > 150 µg/mL | > 150 µg/mL | > 150 µg/mL | > 150 µg/mL | 69.3 µg/mL | > 150 µg/mL | > 150 µg/mL | > 150 µg/mL | > 150 µg/mL | 50.4 µg/mL (≈ 92.5 µM) | 69.2 µg/mL (≈ 127 µM) | 50.1 µg/mL (≈ 91.9 µM) | 47.7 µg/mL (≈ 87.6 µM) | 29.5 µg/mL (≈ 54.2 µM) | 78.1 µg/mL (≈ 143 µM) | 63.6 µg/mL (≈ 117 µM) | 50.9 µg/mL (≈ 93.4 µM) | 68 µg/mL (≈ 125 µM)
9 | O=C(COc1ccc(OCC(=O)N/N=C/c2ccc(-c3ccc(Cl)cc3Cl)o2)c(Cl)c1)N/N=C/c1ccc(-c2ccc(Cl)cc2Cl)o1 | > 100 µM | > 100 µM | > 100 µM | 70.6 µM | > 100 µM | > 100 µM | > 100 µM | 38.4 µM |  | > 100 µM |  |  |  |  |  |  |  |  | 
10 | Cc1ccc2c(c1C)C(=O)C1(Cc3cc4c(cc3C1=O)CCC4)C2 (configuration not stated) | > 100 µM | > 100 µM | > 100 µM | > 100 µM | > 100 µM | > 100 µM | > 100 µM | > 100 µM | > 100 µM | > 100 µM |  |  |  |  |  |  |  |  | 
11 | CCOC(=O)c1c(N2CCCC2)[nH]c(=O)c(C(c2ccc(OC)cc2)c2c(O)c(C(=O)OCC)c(N3CCCC3)[nH]c2=O)c1O | > 100 µM | > 100 µM | > 100 µM |  | > 100 µM | > 100 µM | > 100 µM | > 100 µM | > 100 µM | > 100 µM |  |  |  |  |  |  |  |  | 
12 | O=c1[nH]c(NCc2ccncc2)nc2nc[nH]c12 |  | > 100 µM | > 100 µM |  | > 100 µM | > 100 µM | > 100 µM | > 100 µM |  | > 100 µM |  |  |  |  |  |  |  |  | 
13 | COC(=O)/C=C(\C)CC/C=C(\C)CCC1OC1(C)C (configuration not stated) | 28.6 µM | 23.3 µM | 30 µM | 6.6 µM | 35.2 µM | 21.8 µM | 25.7 µM |  | 24.1 µM | 23.3 µM |  |  |  |  |  |  |  |  | 
14 | CC1(C)CC(=O)C2=C(C1)C(c1ccccc1Cl)C1C(=O)CC(C)(C)CC1(O)O2 (configuration not stated) | > 100 µM | > 100 µM | > 31.6 µM | > 43.7 µM | > 100 µM | > 100 µM | > 100 µM | > 100 µM | > 100 µM | > 95.9 µM |  |  |  |  |  |  |  |  | 
15 | COCOc1ccc(C(=O)Oc2cccc3c2OC(C)(C)O3)c(OCOC)c1 | > 100 µM | > 100 µM | > 100 µM | 19 µM | 86 µM | > 100 µM | > 100 µM | > 100 µM | > 100 µM | > 100 µM |  |  |  |  |  |  |  |  | 
16 | CCCCI(O)OS(=O)(=O)c1ccc(C)cc1 | > 100 µM | > 100 µM | > 100 µM |  | > 100 µM | > 100 µM | > 100 µM | > 100 µM | > 100 µM | > 100 µM |  |  |  |  |  |  |  |  | 
17 | c1ccc(C2=NC3OC2c2ccccc23)cc1 (configuration not stated) | > 10 µM | > 10 µM | > 10 µM | > 10 µM | > 10 µM | > 10 µM | > 10 µM | > 10 µM | > 10 µM | > 10 µM |  |  |  |  |  |  |  |  | 
18 | CN(/N=C1\C(=O)Nc2ccccc21)c1ccccc1 | > 100 µM | > 100 µM |  | > 100 µM | > 100 µM | > 100 µM | > 100 µM | > 100 µM | > 100 µM | > 100 µM |  |  |  |  |  |  |  |  | 
19 | Cc1nc2ccc(Cl)cc2c(-n2ccnc2)c1CCn1ccnc1 | 76.2 µM | 83.6 µM | 41.5 µM | 62.7 µM | 49.1 µM | > 100 µM | 3.37 µM |  | > 100 µM | 61 µM |  |  |  |  |  |  |  |  | 
20 | [N-]=[N+]=CC(=O)C1CCCN1C(=O)c1ccccc1 (configuration not stated) | > 10 µM | > 10 µM | > 10 µM | > 10 µM | > 10 µM | > 10 µM | > 10 µM | > 10 µM | > 10 µM | > 10 µM |  |  |  |  |  |  |  |  | 
21 | O=C(c1ccco1)N(C(=O)N1CCCCC1)c1ccccc1 | > 100 µM | > 100 µM | > 100 µM | > 100 µM | > 100 µM | > 100 µM | > 100 µM | > 100 µM | > 100 µM | > 100 µM |  |  |  |  |  |  |  |  | 
